Where two headings read alike, the source gives them in different places.
Legend:
Kunming mice [1] = test: Acetic acid-induced writhing test; format: in vivo; details: Mus musculus, sc; 31.0 umol/kg s.c.; acetic acid i.p. after 30 min; writhing counted for 10 min
Procedure: Kunming mice, male and female in half, were randomly divided into groups with 8 mice in each group. The following groups were established: the normal saline (NS) control group, in which normal saline was administered by subcutaneous injection (s.c.); the test groups, in which 31.0 umol/kg quaternary ammonium salts compounds of piperazines of the present invention was administered by s.c. All drugs were dissolved in normal saline before use. The drug was injected at the dose of 0.1 ml/10 g. After 30 min, 0.2 ml of 0.6% acetic acid was injected intraperitoneally for each mouse. After 2˜3 min, the writhing reactions such as abdominal constriction, stretch of body and hind limbs, and hip raise occurred. Five minutes after acetic acid injection, the numbers of writhing was counted for 10 min. The percentage of inhibition was determined by using the following formula (1): Inhibition %=[(The numbers of writhing of control group−the numbers of writhing of drag injection group)/the numbers of writhing of control group]×100% (1) 2 Experimental Results
This experiment was carried out according to that of Example 36.

mice [2] = test: Hot-plate test; format: in vivo; details: for pain threshold elevated rate (PTE %): at 2.0 h, 55° C. hot-plate; for ED50: Mus musculus, sc
Procedure: The temperature of the hot-plate was adjusted to 55° C. With licking hind paws and jumping as observation index, the time from placing of the animal on the hot plate to observation the above reactions was recorded as latency time, Latency time was measured for three times and calculated their mean value as Basal threshold or Baseline latency (BL), Mice with latency time of less than 5 s or more than 10 s were eliminated from the study. The remaining mice were divided into 8 groups, and 10 mice in each group. The following groups were established: the normal saline control group (NS), in which normal saline was administered (s.c.); the morphine control group (Mor), in which morphine was administered (s.c.) at the dose of 10.0 mg/kg; and compound LXM-10 groups, in which compound LXM-10 were administered (s.c.) at the dose of 0.75, 1.5, 3.0, 6.0, 12.0 and 24.0 mg/kg. All drugs were dissolved in normal saline before use. The drugs injected at the dose of 0.1 ml/10 g. The latency times were measured at 1.0, 1.5, 2.0, and 3.0 h after administering LXM-10. The cut-off time was set at 30 s to avoid skin scald. The percentage of pain threshold elevated rate (PTE %) was determined by using the following formula (2): PTE %=(The latency time of drug injection group−the latency time of control group at the corresponding time point)/the latency time of control group at the corresponding time point×100% (2)
To judge whether LXM-10 was effective as analgesic using this criterion: at the peak time point of this compound, the latency times of each compound LXM-10 group was greater than the mean latency time of normal saline control group at the corresponding time point plus three times of standard deviation. The effective percentage of each group was calculated made data conversion, then calculated the analgesic ED50 and 95% confidence interval (CI) in accordance with the formulae (3) and (4) using General Method for Calculating.
Wherein, Xm represents the logarithm value of the largest dose, i refers to group interval, ΣP refers to the sum of each group's efficiency, ΣP^2 represents the square sum of each group's efficiency, n refers to numbers of experimental groups.

ICR mice = test: Formalin test; format: in vivo; details: 0.5 h after s.c., dose not stated
Procedure: Sixty ICR mice, male and female in half, were divided into six groups with 10 mice in each group. The following groups were established: the normal saline (NS) control group, in which normal saline was administered by s.c.; the aspirin control group, in which aspirin was administered by i.g. at the dose of 300 mg/kg; the morphine control, group, in which morphine was administered (s.c.) at the dose of 10.0 mg/kg; and compound LXM-10 groups, in which compound LXM-10 were administered (s.c.) at the dose of 0.75, 1.5, 3.0 and 6.0 mg/kg. All drugs were dissolved in normal saline before use. The drugs injected at the dose of 0.1 ml/10 g. 30 min after administration, animals were administered 20 ul of 2.5% formalin solution on the right front paws. The licking times were recorded immediately in the duration of 0˜5 minutes as phase I reaction; After 20 minutes, the licking times were recorded in the duration of 20˜25 minutes as phase II reaction. The percentage of pain inhibition (%) was determined by using the following formula (5): Pain inhibition %=[(The licking time of normal saline control group−the licking time of drug injection group)/the licking time of normal saline control group]×100% (5) 2. Experimental Results

mice [3] = test: Addiction test (tail-erected response); format: in vivo; details: doses of 6.0, 12.0, 24.0 or 445.0 mg/kg
Procedure: (§1) All the following tests were carried out by using compound LXM-10 according to the routine methods.
They are quiet and normal.

Acute toxicity test = details: in vivo, sc
Procedure: as §1

mice [4] = test: Function of motion coordination (rota-rod); format: in vivo; details: for Time of falling down from rota-rod: before treatment
Procedure: as §1
The effect of muscle-relaxed effect on the analgesic effect of LXM-10 was also excluded.

mice [5] = test: Spontaneous motion in mice; format: in vivo; details: for Numbers of movement: before treatment
Procedure: as §1

Body temperature in mice = format: in vivo; details: for Rectal temperature: before treatment
Procedure: as §1

Kunming mice [6] = test: Acetic acid-induced writhing test; format: in vivo; details: 0.5 h after s.c. administration

CC1C[N+]2(CCN(CCc3ccccc3)CC2)CC(C)O1 (stereo not drawn) [LXM-10, 2,4-dimethyl-9-β-phenylethyl-3-oxo-6,9-diazaspiro[5.5]undecane chloride]
inhibition in vivo at 31 µmol/kg (Kunming mice [1]): 65% | pain threshold elevated rate (PTE %) (mice [2]; 1.5 mg/kg s.c.): 47.5% | pain threshold elevated rate (PTE %) (mice [2]; 3.0 mg/kg s.c.): 54.8% | pain threshold elevated rate (PTE %) (mice [2]; 6.0 mg/kg s.c.): 79.2% | pain threshold elevated rate (PTE %) (mice [2]; 12.0 mg/kg s.c.): 126.8% | ED50 (mice [2]; hot-plate, at peak time, read-out: analgesic ED50): 3.2 mg/kg | ED50 (mice [2]; hot-plate, read-out: ED50 95% confidence interval): 1.8 to 5.4 mg/kg | analgesic effect persisted to (mice [2]; s.c., hot-plate): 3.0 h | onset time of analgesic effect (mice [2]; s.c., hot-plate): 1.0 h | peak time of analgesic effect (mice [2]; s.c., hot-plate): 2.0 h | percentage of pain inhibition, Phase II (ICR mice; first of three values): 67.0% | percentage of pain inhibition, Phase II (ICR mice; second of three values): 69.6% | percentage of pain inhibition, Phase II (ICR mice; third of three values): 50.0% | tail-erected response (mice [3]): no tail-erected response | LD50 (Acute toxicity test; read-out: LD50): 514 mg/kg | LD50 (Acute toxicity test; read-out: LD50 95% confidence interval): 495 to 531 mg/kg | Time of falling down from rota-rod after treatment (mice [4]; 6.0 mg/kg, 0.5 h): 106.5 ± 8.88 s | Time of falling down from rota-rod after treatment (mice [4]; 6.0 mg/kg, 2.0 h): 110.0 ± 5.17 s | Time of falling down from rota-rod after treatment (mice [4]; 6.0 mg/kg, 3.5 h): 116.2 ± 3.75 s | Time of falling down from rota-rod (mice [4]; 6.0 mg/kg): 96.7 ± 9.17 s | Time of falling down from rota-rod after treatment (mice [4]; 12.0 mg/kg, 0.5 h): 109.6 ± 10.3 s | Time of falling down from rota-rod after treatment (mice [4]; 12.0 mg/kg, 2.0 h): 109.3 ± 8.15 s | Time of falling down from rota-rod after treatment (mice [4]; 12.0 mg/kg, 3.5 h): 119.6 ± 0.38 s | Time of falling down from rota-rod (mice [4]; 12.0 mg/kg): 96.6 ± 8.93 s | Time of falling down from rota-rod after treatment (mice [4]; 24.0 mg/kg, 0.5 h): 112.7 ± 5.18 s | Time of falling down from rota-rod after treatment (mice [4]; 24.0 mg/kg, 2.0 h): 117.5 ± 2.50 s | Time of falling down from rota-rod after treatment (mice [4]; 24.0 mg/kg, 3.5 h): 119.0 ± 1.00 s | Time of falling down from rota-rod (mice [4]; 24.0 mg/kg): 101.2 ± 9.15 s | effect on function of motion coordination (mice [4]; 6.0, 12.0, 24.0 mg/kg): did not significantly affect | Numbers of movement after treatment (mice [5]; 6.0 mg/kg, 0.5 h): 46.6 ± 2.63 | Numbers of movement after treatment (mice [5]; 6.0 mg/kg, 2.0 h): 42.3 ± 3.38 | Numbers of movement after treatment (mice [5]; 6.0 mg/kg, 3.5 h): 48.0 ± 5.00 | Numbers of movement (mice [5]; 6.0 mg/kg): 46.8 ± 1.96 | Numbers of movement after treatment (mice [5]; 12.0 mg/kg, 0.5 h): 48.0 ± 6.21 | Numbers of movement after treatment (mice [5]; 12.0 mg/kg, 2.0 h): 48.1 ± 6.14 | Numbers of movement after treatment (mice [5]; 12.0 mg/kg, 3.5 h): 48.0 ± 7.85 | Numbers of movement (mice [5]; 12.0 mg/kg): 47.7 ± 2.55 | Numbers of movement after treatment (mice [5]; 24.0 mg/kg, 0.5 h): 43.5 ± 4.21 | Numbers of movement after treatment (mice [5]; 24.0 mg/kg, 2.0 h): 45.5 ± 6.05 | Numbers of movement after treatment (mice [5]; 24.0 mg/kg, 3.5 h): 46.6 ± 3.69 | Numbers of movement (mice [5]; 24.0 mg/kg): 50.2 ± 2.31 | effect on spontaneous motion (mice [5]; 6.0, 12.0, 24.0 mg/kg): did not significantly affect | Rectal temperature after treatment (Body temperature in mice; 6.0 mg/kg, 0.5 h): 37.3 ± 0.35 °C | Rectal temperature after treatment (Body temperature in mice; 6.0 mg/kg, 2.0 h): 37.3 ± 0.28 °C | Rectal temperature after treatment (Body temperature in mice; 6.0 mg/kg, 3.5 h): 37.5 ± 0.29 °C | Rectal temperature (Body temperature in mice; 6.0 mg/kg): 37.7 ± 0.34 °C | Rectal temperature after treatment (Body temperature in mice; 12.0 mg/kg, 0.5 h): 37.0 ± 0.26 °C | Rectal temperature after treatment (Body temperature in mice; 12.0 mg/kg, 2.0 h): 37.1 ± 0.24 °C | Rectal temperature after treatment (Body temperature in mice; 12.0 mg/kg, 3.5 h): 37.1 ± 0.20 °C | Rectal temperature (Body temperature in mice; 12.0 mg/kg): 37.1 ± 0.09 °C | Rectal temperature after treatment (Body temperature in mice; 24.0 mg/kg, 0.5 h): 37.5 ± 0.21 °C | Rectal temperature after treatment (Body temperature in mice; 24.0 mg/kg, 2.0 h): 37.0 ± 0.19 °C | Rectal temperature after treatment (Body temperature in mice; 24.0 mg/kg, 3.5 h): 37.3 ± 0.16 °C | Rectal temperature (Body temperature in mice; 24.0 mg/kg): 37.0 ± 0.18 °C | effect on body temperature (Body temperature in mice; 6.0, 12.0, 24.0 mg/kg): did not affect | percentage of pain inhibition (Kunming mice [6]; 1.5 mg/kg): 63.4% | percentage of pain inhibition (Kunming mice [6]; 3.0 mg/kg): 78.8% | percentage of pain inhibition (Kunming mice [6]; 6.0 mg/kg): 79.2% | percentage of pain inhibition (Kunming mice [6]; 12.0 mg/kg): 55.6%
